Assay results reported in patent US7166598B2, “Piperazine derivatives” (Astellas Pharma Inc., priority 1998, dated 2007).

test system: Emesis in the dog; test: Emesis in the dog (apomorphine-induced retching and vomiting); type: in vivo; details: dose of 0.32 mg/kg i.v., 5 min before subcutaneous apomorphine (0.1 mg/0.5 ml/kg), observed for 60 min
Procedure: Individually housed adult female dogs (8 to 15 kg) were given an i.v. injection of a solution containing a test compound. 5 Min later the emetic responses (retching and vomiting) were induced by administration of subcutaneous apomorphine (0.1 mg/0.5 ml/kg) and observed for the next 60 min. The timing and number of retches and vomits observed were recorded for each animal. An individual animal was tested with at least 10 days between experiments.

| SMILES | inhibition rate of emesis in the dog |
| --- | --- |
| Cc1ccc(CC2CN(CCN3C[C@@H](C)O[C@@H](C)C3)CCN2C(=O)c2cc(C(F)(F)F)cc(C(F)(F)F)c2)cc1O.Cl.Cl (relative stereo) [Example 4-(1), 1-[3,5-Bis(trifluoromethyl)benzoyl]-4-[2-(cis-2,6-dimethylmorpholino)ethyl]-2-(3-hydroxy-4-methylbenzyl)piperazine dihydrochloride] | 100% |

test system: not given; test: not given; details: not given

| melting point | SMILES |
| --- | --- |
| 188 to 200 °C | Cc1ccc(CC2CN(CCN3C[C@@H](C)O[C@@H](C)C3)CCN2C(=O)c2cc(C(F)(F)F)cc(C(F)(F)F)c2)cc1O.Cl.Cl (relative stereo) [Example 4-(1), 1-[3,5-Bis(trifluoromethyl)benzoyl]-4-[2-(cis-2,6-dimethylmorpholino)ethyl]-2-(3-hydroxy-4-methylbenzyl)piperazine dihydrochloride] |
| 140.1 to 143.8 °C | C[C@@H]1CN(CCN2CCN(C(=O)c3cc(Cl)cc(Cl)c3)[C@H](Cc3ccc(Cl)cc3)C2)C[C@H](C)O1.Cl.Cl |
| 89 to 110.2 °C | C[C@@H]1CN(CCN2CCN(C(=O)c3cc(C(F)(F)F)cc(C(F)(F)F)c3)[C@H](Cc3ccc(F)cc3)C2)C[C@H](C)O1.Cl.Cl |
| 139 to 142 °C | COC[C@@H]1CN(CCN2CCN(C(=O)c3cc(Cl)cc(C(F)(F)F)c3)[C@H](Cc3ccc(F)c(OC)c3)C2)CCO1.Cl.Cl |
| 159 to 170 °C | CNc1cc(C(=O)N2CCN(CCN3CCO[C@H](COC)C3)C[C@H]2Cc2ccc(C)c(O)c2)cc(C(F)(F)F)c1.Cl.Cl |
| 190 to 200 °C | COc1cc(C(=O)N2CCN(CC#CCN3CCOCC3(C)C)C[C@H]2Cc2c[nH]c3ccccc23)cc(C(F)(F)F)c1.Cl.Cl |
| 145 to 160 °C | CNc1noc(CN2CCN(C(=O)c3cc(C(F)(F)F)cc(C(F)(F)F)c3)[C@H](Cc3ccc(C)c(O)c3)C2)n1.Cl.Cl |
| 220 to 228 °C (dec.) | Cl.Cl.O=C(c1cc(C(F)(F)F)cc(C(F)(F)F)c1)N1CCN(Cc2cccnc2)C[C@H]1Cc1ccc(Cl)cc1 |
| 175 to 185 °C | COc1cc(C[C@@H]2CN(CCN3CCc4ncccc4C3)CCN2C(=O)c2cc(C(F)(F)F)cc(C(F)(F)F)c2)ccc1F.Cl.Cl.Cl |
| 218 to 228 °C | COC[C@@H]1CN(CCN2CCN(C(=O)c3cc(C(F)(F)F)cc(C(F)(F)F)c3)[C@H](Cc3ccc(C(C)C)c(O)c3)C2)CCO1.Cl.Cl |
| 166 to 170 °C | Cl.Cl.O=C(c1cc(C(F)(F)F)cc(C(F)(F)F)c1)N1CCN(CCN2CCC(F)(F)CC2)C[C@H]1Cc1ccc(Cl)c(O)c1 |
| 110 to 135 °C | COC[C@@H]1CN(CC#CCN2CCN(C(=O)c3cc(C(F)(F)F)cc(C(F)(F)F)c3)C(Cc3ccc(C)c(O)c3)C2)[C@@H](C)CO1.Cl.Cl (some centres unmarked) |
| 148 to 159 °C | C[C@@H]1CN(CCN2CCN(C(=O)c3cc(C(F)(F)F)cc(C(F)(F)F)c3)[C@H](Cc3ccc(C(F)(F)F)cc3)C2)C[C@H](C)O1.Cl.Cl |
| 173.5 to 178 °C | COC[C@@H]1CN(CCN2CCN(C(=O)c3cc(C(F)(F)F)cc(S(C)(=O)=O)c3)[C@H](Cc3ccc(C)c(O)c3)C2)CCO1.Cl.Cl |
| 187 to 195 °C | COc1cc(C(=O)N2CCN(CC#CCN3CCOCC3(C)C)C[C@H]2Cc2ccc(Cl)c(O)c2)cc(C(F)(F)F)c1.Cl.Cl |
| 197 to 200 °C | Cl.Cl.O=C(c1cc(C(F)(F)F)cc(C(F)(F)F)c1)N1CCN(Cc2c[nH]c3ncccc23)C[C@H]1Cc1ccc(Cl)c(O)c1 |
| 90 to 120 °C | COc1cc(C(=O)N2CCN(CCN3C[C@@H](C)O[C@@H](C)C3)C[C@H]2Cc2ccc(Cl)cc2)cc(C(F)(F)F)c1.Cl.Cl |
| 182 to 186 °C | COC[C@@H]1CN(CCN2CCN(C(=O)c3cc(N(C)C)cc(C(F)(F)F)c3)[C@H](Cc3ccc(C)c(O)c3)C2)CCO1.Cl.Cl |
| 226 to 228 °C | COc1cc(C(=O)N2CCN(Cc3cnn(C)c3)C[C@H]2Cc2ccc3ccccc3c2)cc(C(F)(F)F)c1.Cl |

| melting point | SMILES |
| --- | --- |
| 137.5 to 140.7 °C | COc1cc(C(=O)N2CCN(CC#CCN3CCOCC3(C)C)C[C@H]2Cc2ccc(F)cc2)cc(C(F)(F)F)c1.Cl.Cl |
| 245.6 to 248.7 °C | CNc1cc(C(=O)N2CCN(CCN3C[C@@H](C)O[C@@H](C)C3)C[C@H]2Cc2ccc(Cl)cc2)cc(C(F)(F)F)c1.Cl.Cl |
| 140 to 170 °C | COc1cc(C(=O)N2CCN(CCN3CCc4ncccc4C3)C[C@H]2Cc2ccc(Cl)cc2)cc(C(F)(F)F)c1.Cl.Cl.Cl |
| 200 to 204 °C | Cl.Cl.Cl.O=C(c1cc(Cl)cc(C(F)(F)F)c1)N1CCN(CCN2CCc3ncccc3C2)C[C@H]1Cc1ccc(Cl)c(O)c1 |
| 156 to 168 °C | COC[C@@H]1CN(CCN2CCN(C(=O)c3cc(C(F)(F)F)cc(C(F)(F)F)c3)[C@H](Cc3ccc(F)c(O)c3)C2)CCO1.Cl.Cl |
| 60 to 80 °C | COc1cc(C(=O)N2CCN(Cc3cccnc3)C[C@H]2Cc2ccc(Cl)cc2)cc(C(F)(F)F)c1.Cl.Cl |
| 128 to 134 °C | COC[C@@H]1C[C@@H](OC)CN1CCN1CCN(C(=O)c2cc(C(F)(F)F)cc(C(F)(F)F)c2)[C@H](Cc2ccc(F)c(OC)c2)C1.Cl.Cl |
| 167 to 172 °C | COC[C@@H]1COCCN1CCN1CCN(C(=O)c2cc(C(F)(F)F)cc(C(F)(F)F)c2)C(Cc2ccc(C)c(O)c2)C1.Cl.Cl (some centres unmarked) |
| 237 to 243 °C (dec.) | Cl.Cl.Cl.O=C(c1cc(C(F)(F)F)cc(C(F)(F)F)c1)N1CCN(CCN2CCc3ncccc3C2)C[C@H]1Cc1ccc(Cl)c(O)c1 |
| 110.2 to 117.5 °C | Cl.Cl.O=C(c1cc(C(F)(F)F)cc(C(F)(F)F)c1)N1CCN(CCCc2cccnc2)C[C@H]1Cc1ccc(F)cc1 |
| 135 to 145 °C | C[C@@H]1CN(CCN2CCN(C(=O)c3cc(-c4ccncc4)cc(C(F)(F)F)c3)[C@H](Cc3ccc(C(F)(F)F)cc3)C2)C[C@H](C)O1.Cl.Cl.Cl |
| 198 to 213 °C | CS(=O)(=O)c1cc(C(=O)N2CCN(CCN3CCc4ncccc4C3)C[C@H]2Cc2ccc(Cl)cc2)cc(C(F)(F)F)c1.Cl.Cl.Cl |
| 190 to 200 °C | Cc1ccc(C[C@@H]2CN(CCN3CCOc4cccnc43)CCN2C(=O)c2cc(C(F)(F)F)cc(C(F)(F)F)c2)cc1O.Cl.Cl |
| 162 to 165 °C | Cc1ccc(C[C@@H]2CN(Cc3csc(N(C)C)n3)CCN2C(=O)c2cc(C(F)(F)F)cc(C(F)(F)F)c2)cc1O.Cl.Cl |
| 150 to 155 °C | CO[C@H]1CN(CCN2CCN(C(=O)c3cc(C(F)(F)F)cc(C(F)(F)F)c3)[C@H](Cc3ccc(Cl)c(O)c3)C2)C[C@@H]1OC.Cl.Cl |
| 154 to 168 °C | COC[C@@H]1CN(CCN2CCN(C(=O)c3cc(SC)cc(C(F)(F)F)c3)[C@H](Cc3ccc(C)c(O)c3)C2)CCO1.Cl.Cl |
| 180 to 190 °C | Cc1ccc(CC2CN(CC#Cc3cccnc3)CCN2C(=O)c2cc(C(F)(F)F)cc(C(F)(F)F)c2)cc1O.Cl.Cl (centres unmarked) [Example 7, 1-[3,5-bis(trifluoromethyl)benzoyl]-2-(3-hydroxy-4-methylbenzyl)-4-[3-(3-pyridyl)-2-propynyl]piperazine dihydrochloride] |
| 143.3 to 147.5 °C | COc1cc(C[C@@H]2CN(CCN3CCc4ncccc4C3)CCN2C(=O)c2cc(SC)cc(C(F)(F)F)c2)ccc1F.Cl.Cl.Cl |
